Results on 10 compounds are retold here after US20250382332A1, “NOVEL ALPHA-FACTOR BASED PEPTIDES WITH ANTIFUNGAL ACTIVITY” (INVAIO SCIENCES, INC., priority 2024, published 2025).

Peptide text beside a SMILES is read from it. A value given as a limit tells only on which side of the number the result lay.

Experiment [1] deals with Botrytis cinerea (B05.10). Nature of the experiment: Resazurin antifungal assay of 23 alpha-factor peptides (dimers, hybrids) towards Botrytis (Example 15, Table 6). It is filed as cell-based. More on the design: key to active against Botrytis at 2.5 μM: Peptides that showed greater than 90% inhibition were considered active against Botrytis. The conditions noted are these: for Inhibition at 50 μM: peptide 50 μM; for Inhibition at 2.5 μM / active against Botrytis at 2.5 μM: peptide 2.5 μM; for Inhibition at 5 μM: peptide 5 μM; for Inhibition at 10 μM: peptide 10 μM; for Inhibition at 20 μM: peptide 20 μM. The protocol: The antifungal activity of […] alpha-factor peptide variants towards Botrytis was tested. Experimental design:
Peptides corresponding to SEQ ID NO: 261-264 and 401-420 were chemically synthesized using the solid-phase synthesis method and resuspended in water to a stock solution of 1 mM. The stock solution was aliquoted in cryovials and stored at −80° C.
The Botrytis cinerea culture (B05.10) isolate was acquired from the Centraalbureau voor Schimmelcultures, the Netherlands. The Botrytis fungus was propagated on 0.5% V8 agar plates (200 ml V8 Juice, 3 g CaCO3, 15 g agar, 800-ml millipore water) at 20° C., in a 12 h photoperiod for 21 days.
Fungal conidia were harvested by scraping a Botrytis plate flooded with 1 ml water with 0.1% Tween 80 solution. Conidia were then collected in a 50 ml falcon tube by passing the solution through a 40 micron filter. The solution was then centrifuged at 6000 rpm and the pellet was resuspended in 1 ml of 20% glycerol. The conidia concentration of the resulting solution was counted using a hemocytometer. The stock was diluted to […] using 20% glycerol and frozen in 100 μl aliquots in −80° C. until further use.
Peptides were tested for activity against Botrytis, using the resazurin assay. For this, fungal stock conidia was first diluted to 5000 conidia/well. 50 μl of the spore suspension was added to each well of the sterile 96-well clear bottom testing plate and mixed with 50 μl of peptide solutions to a final concentration of 100, 50, 20, 10, 5 and 2.5 μM. The plate was incubated for 24 h at 20° C. After 24 h, 10 μl of resazurin dye was added to the microtiter plate and incubated again for […]. Fluorescence was measured at 570/620 nm after 4 h of incubation with resazurin.
Growth inhibition was calculated by subtracting the fluorescence values of conidia only wells from sample wells and depicted as % inhibition of fungal growth. Four technical replicates were used for all treatments.
A general note: Alamar Blue is a resazurin reagent that responds to reducing activity.

Experiment [2] concerns Botrytis cinerea (B05.10). Nature of the experiment: Resazurin antifungal assay of 180 alpha-factor peptide variants towards Botrytis (Example 2). The format is cell-based. The conditions noted are these: % inhibition of fungal growth, Botrytis conidia, resazurin; for Inhibition at 50 μM: peptide 50 μM; for Inhibition at 100 μM: peptide 100 μM. In a few lines: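 Resazurin viability read-out (570/620 nm fluorescence) after a 24 h, 20° C incubation of B05.10 conidia, 5000 per well, with peptide at final 10-100 μM. Growth inhibition (%) was derived by subtracting conidia-only fluorescence; four replicates per treatment.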

[3] abbreviates: resazurin assay, % inhibition of fungal growth, Botrytis cinerea B05.10.

By Inhibition is commonly meant the percentage by which the read-out fell short of the control.

On to `CSCC[C@H](NC(=O)[C@H](Cc1ccc(O)cc1)NC(=O)[C@H](CCCNC(=N)N)NC(=O)[C@H](CCCNC(=N)N)NC(=O)[C@H](CCCNC(=N)N)NC(=O)[C@H](CCCNC(=N)N)NC(=O)[C@H](CCCNC(=N)N)NC(=O)[C@H](CCCNC(=N)N)NC(=O)[C@H](CCCNC(=N)N)NC(=O)[C@@H](N)CCCNC(=N)N)C(=O)N1CCC[C@H]1C(=O)N[C@@H](CCC(N)=O)C(=O)NCC(=O)N1CCC[C@H]1C(=O)N[C@@H](CCCCN)C(=O)N[C@@H](CC(C)C)C(=O)N[C@@H](CCC(N)=O)C(=O)N[C@@H](CC(C)C)C(=O)N[C@@H](Cc1c[nH]c2ccccc12)C(=O)N[C@@H](Cc1c[nH]cn1)C(=O)N[C@@H](Cc1c[nH]c2ccccc12)C(=O)O` [compound 420] (H-RRRRRRRRYMPQGPKLQLWHW-OH; N-terminus and C-terminus assumed), for which the “Inhibition at 50 μM” value in experiment [1] (setting [3]) is given as 100%. Moreover, in experiment [1] (peptide 100 μM, resazurin assay, % inhibition of fungal growth, Botrytis cinerea B05.10), the “Inhibition at 100 μM” value is reported as 100%.
As for `CC[C@H](C)[C@H](NC(=O)[C@H](Cc1c[nH]cn1)NC(=O)[C@@H](N)CCCCN)C(=O)N[C@@H](CC(C)C)C(=O)N[C@@H](CCCCN)C(=O)N[C@@H](Cc1ccccc1)C(=O)N[C@@H](CCCCN)C(=O)N1CCC[C@H]1C(=O)NCC(=O)N[C@@H](CCC(N)=O)C(=O)N1CCC[C@H]1C(=O)N[C@@H](CCSC)C(=O)N[C@@H](Cc1ccc(O)cc1)C(=O)O` [compound 402] (H-KHILKFKPGQPMY-OH; N-terminus and C-terminus assumed), in experiment [1] (setting [3]), the “Inhibition at 2.5 μM” value is on record as <90%, the “Inhibition at 5 μM” value is on record as <90%, the “Inhibition at 10 μM” value was 96.2% and the “Inhibition at 20 μM” value is on record as 100%. In addition, the “Inhibition at 50 μM” value in experiment [1] (setting [3]) was determined as 100%.
For `CSCC[C@H](NC(=O)[C@@H]1CCCN1C(=O)[C@H](CCC(N)=O)NC(=O)CNC(=O)[C@@H]1CCCN1C(=O)[C@H](CCCCN)NC(=O)[C@H](Cc1ccccc1)NC(=O)[C@H](CCCNC(=N)N)NC(=O)[C@H](CC(C)C)NC(=O)[C@H](Cc1ccc(O)cc1)NC(=O)[C@H](Cc1c[nH]cn1)NC(=O)[C@@H](N)CCCCN)C(=O)N[C@@H](Cc1ccc(O)cc1)C(=O)O` [compound 403] (H-KHYLRFKPGQPMY-OH; N-terminus and C-terminus assumed), in experiment [1] (setting [3]), the “Inhibition at 2.5 μM” value was <90%, the “Inhibition at 5 μM” value was <90%, the “Inhibition at 10 μM” value is reported as 96.0% and the “Inhibition at 20 μM” value is given as 100%. In addition, the “Inhibition at 50 μM” value in experiment [1] (setting [3]) was 100%.
For the compound `CC[C@H](C)[C@H](NC(=O)[C@H](CCCNC(=N)N)NC(=O)[C@H](CC(C)C)NC(=O)[C@H](Cc1c[nH]c2ccccc12)NC(=O)[C@H](Cc1c[nH]cn1)NC(=O)[C@@H](N)CCCCN)C(=O)N[C@@H](Cc1c[nH]c2ccccc12)C(=O)N1CCC[C@H]1C(=O)NCC(=O)N[C@@H](CCC(N)=O)C(=O)N1CCC[C@H]1C(=O)N[C@@H](CCSC)C(=O)N[C@@H](Cc1ccc(O)cc1)C(=O)O` [compound 412] (H-KHWLRIWPGQPMY-OH; N-terminus and C-terminus assumed), in experiment [1] (setting [3]), the “Inhibition at 10 μM” value is <90%, the “Inhibition at 20 μM” value is <90% and the “Inhibition at 50 μM” value was found to be 100%.
`CSCC[C@H](NC(=O)[C@H](CO)NC(=O)[C@H](CCC(N)=O)NC(=O)CNC(=O)[C@H](CCCNC(=N)N)NC(=O)[C@H](CCCCN)NC(=O)[C@H](CC(C)C)NC(=O)[C@@H](NC(=O)[C@H](CC(C)C)NC(=O)[C@@H](NC(=O)[C@@H](NC(=O)[C@@H](N)Cc1c[nH]c2ccccc12)[C@@H](C)O)C(C)C)[C@@H](C)O)C(=O)N[C@@H](Cc1ccc(O)cc1)C(=O)O` [compound 409] (H-WTVLTLKRGQSMY-OH; N-terminus and C-terminus assumed): in experiment [1] (setting [3]), the “Inhibition at 2.5 μM” value is <90%, the “Inhibition at 5 μM” value was <90%, the “Inhibition at 10 μM” value was found to be 97.7% and the “Inhibition at 20 μM” value came to 100%. Besides, the “Inhibition at 50 μM” value in experiment [1] (setting [3]) was 100%.
Take `CSCC[C@H](NC(=O)[C@@H]1CCCN1C(=O)[C@H](CCC(N)=O)NC(=O)CNC(=O)[C@H](C)NC(=O)[C@H](CCCNC(=N)N)NC(=O)[C@H](CC(C)C)NC(=O)[C@H](CCCNC(=N)N)NC(=O)CNC(=O)[C@H](Cc1c[nH]c2ccccc12)NC(=O)[C@H](Cc1c[nH]cn1)NC(=O)[C@@H](N)CCCCN)C(=O)N[C@@H](Cc1ccc(O)cc1)C(=O)NCC(=O)NCC(=O)NCC(=O)NCC(=O)N[C@@H](CCCNC(=N)N)C(=O)N[C@@H](CCCNC(=N)N)C(=O)N[C@@H](CCCNC(=N)N)C(=O)N[C@@H](CCCNC(=N)N)C(=O)N[C@@H](CCCNC(=N)N)C(=O)N[C@@H](CCCNC(=N)N)C(=O)N[C@@H](CCCNC(=N)N)C(=O)N[C@@H](CCCNC(=N)N)C(=O)O` [compound 262] (H-KHWGRLRAGQPMYGGGGRRRRRRRR-OH; N-terminus and C-terminus assumed): in experiment [1], the “active against Botrytis at 2.5 μM” value was “active”. Besides, in experiment [1] (setting [3]), the “Inhibition at 2.5 μM” value came to 99.8%, the “Inhibition at 5 μM” value was found to be 100%, the “Inhibition at 10 μM” value amounted to 100% and the “Inhibition at 20 μM” value was found to be 100%. Moreover, the “Inhibition at 50 μM” value in experiment [1] (setting [3]) turned out to be 100%.
With `CC[C@H](C)[C@H](NC(=O)[C@H](CCC(N)=O)NC(=O)[C@H](CC(C)C)NC(=O)[C@H](CO)NC(=O)[C@H](Cc1c[nH]cn1)NC(=O)[C@@H](N)Cc1c[nH]c2ccccc12)C(=O)N[C@@H](CCCCN)C(=O)N[C@@H](CCCCN)C(=O)NCC(=O)N[C@@H](CCC(N)=O)C(=O)N1CCC[C@H]1C(=O)N[C@@H](CCSC)C(=O)N[C@@H](Cc1ccc(O)cc1)C(=O)O` [compound 407] (H-WHSLQIKKGQPMY-OH; N-terminus and C-terminus assumed), in experiment [1] (setting [3]), the “Inhibition at 10 μM” value is on record as <90%, the “Inhibition at 20 μM” value is recorded as <90% and the “Inhibition at 50 μM” value was determined as 100%.
As to `CSCC[C@H](NC(=O)[C@@H]1CCCN1C(=O)[C@H](CCC(N)=O)NC(=O)CNC(=O)[C@H](C)NC(=O)[C@H](CCCNC(=N)N)NC(=O)[C@H](CC(C)C)NC(=O)[C@H](CCCNC(=N)N)NC(=O)CNC(=O)[C@H](Cc1c[nH]c2ccccc12)NC(=O)[C@H](Cc1c[nH]cn1)NC(=O)[C@@H](N)CCCCN)C(=O)N[C@@H](Cc1ccc(O)cc1)C(=O)NCC(=O)NCC(=O)NCC(=O)NCC(=O)N[C@@H](CCCCN)C(=O)N[C@@H](CCCCN)C(=O)N[C@@H](CCCCN)C(=O)N[C@@H](CCCCN)C(=O)N[C@@H](CCCCN)C(=O)N[C@@H](CCCCN)C(=O)N[C@@H](CCCCN)C(=O)N[C@@H](CCCCN)C(=O)O` [compound 263] (H-KHWGRLRAGQPMYGGGGKKKKKKKK-OH; N-terminus and C-terminus assumed), the “active against Botrytis at 2.5 μM” value in experiment [1] is reported as “active”. For the same compound, in experiment [1] (setting [3]), the “Inhibition at 2.5 μM” value is on record as 99.7%, the “Inhibition at 5 μM” value stood at 100%, the “Inhibition at 10 μM” value is 100% and the “Inhibition at 20 μM” value is 100%. The “Inhibition at 50 μM” value in experiment [1] (setting [3]) is reported as 100%.
With `CSCC[C@H](NC(=O)[C@@H]1CCCN1C(=O)[C@H](CCC(N)=O)NC(=O)CNC(=O)[C@@H]1CCCN1C(=O)[C@H](CC(N)=O)NC(=O)[C@H](CC(C)C)NC(=O)[C@H](CCCNC(=N)N)NC(=O)[C@H](CC(C)C)NC(=O)[C@H](Cc1c[nH]c2ccccc12)NC(=O)[C@H](Cc1c[nH]cn1)NC(=O)[C@@H](N)CCCCN)C(=O)N[C@@H](Cc1ccc(O)cc1)C(=O)O` [compound 69] (H-KHWLRLNPGQPMY-OH; N-terminus and C-terminus assumed), the “Inhibition at 10 μM” value in experiment [2] (peptide 10 μM) is <90%. For the same compound, in experiment [2] (peptide 15 μM), the “Inhibition at 15 μM” value is reported as <90%. In addition, the “Inhibition at 20 μM” value in experiment [2] (peptide 20 μM) is listed as 95.74%. Further, in experiment [2], the “Inhibition at 50 μM” value came out at 100% and the “Inhibition at 100 μM” value is listed as 100%.
As for `CSCC[C@H](NC(=O)[C@@H]1CCCN1C(=O)[C@H](CCC(N)=O)NC(=O)CNC(=O)[C@@H]1CCCN1C(=O)[C@H](CCCCN)NC(=O)[C@H](CC(C)C)NC(=O)[C@H](CO)NC(=O)[C@H](CC(C)C)NC(=O)[C@@H](NC(=O)CNC(=O)[C@@H](N)CCCCN)[C@@H](C)O)C(=O)N[C@@H](Cc1ccc(O)cc1)C(=O)O` [compound 164] (H-KGTLSLKPGQPMY-OH; N-terminus and C-terminus assumed), in experiment [2], the “Inhibition at 50 μM” value is on record as <90% and the “Inhibition at 100 μM” value is recorded as <90%.
